# Experimental data from patent publication US7947287B2, “Peptides for the treatment of cancer associated with the human papilloma virus (HPV) and other epithelial tumors” (Centro de Ingenieria Genetica y Biotecnolgia, priority 2001, dated 2011).
# Bridges are numbered along the chain shown (N, C = ends). Where no end group is shown, it is not given here.
# Test system: H-125 cells (Non-Small Lung Cell Cancer)
# Assay: antitumor effect in human tumors implanted in nude mice
# Format: in vivo, BalbC nude mice
# Conditions: H-125 subcutaneous, 1 to 10 mg/Kg every other day for one month, FIG. 6
# Experimental: For these experiments, 6-8 week old female BalbC nude mice were used. The tumor implantation was performed using H-125 cells (Non-Small Lung Cell Cancer) that were resuspended in saline solution (PBS) at 1000 000 cells/ml. Cell suspension was inoculated subcutaneously in the abdomen. Peptide administration (sequence 1 on the list) was made together with the cells and continued every other day until completing one month of treatment. In this assay, doses ranging between 1 and 10 mg/Kg of weight were evaluated. To examine the antitumor effect, parameters like tumor mass and survival of the animals were evaluated.
sequence,measurement,value
CSVRQGPVQKC (disulfide 1-11 (inferred)) [sequence 1 on the list],inhibition of tumor progression,effective in terms of the inhibition of tumor progression
